Measurements reported in patent US7067667B2, “Aminoalkyl-3, 4-dihydroquinoline derivatives as no-synthase inhibitors” (Schering Aktiengesellschaft, priority 1998, dated 2006).
Counter-ions that a name gives are not always drawn.

Target: bNOS (UniProt P29475)
Assay: bNOS inhibition (method of Bredt and Snyder)
Format: biochemical
From the text: The NOS-inhibitory action of the compounds of Formula (I) and their physiologically compatible salts can be determined according to the methods by Bredt and Snyder in Proc. Natl. Acad. Sci. USA (1989) 86, 9030–9033.

IC50: 190 nM
SMILES: NC1=Nc2cc(CCNCc3cccc(Cl)c3)c(Cl)cc2C2CCCC12 (stereo not shown) [Example 8, 4-Amino-8-chloro-7-(3-chlorobenzylamino)ethyl-2,3,3a,9b-tetrahydro-1H-cyclopenta[c]quinoline Dihydrochloride]
